Assay results from the supplement of paper PMC10307832.

What was measured:
Assay in all cases: relative viability (nuclei count vs DMSO), 5 days (fraction); higher = more cells survive
Kobe2602 + Crizotinib = compound: C1=CC(=CC=C1NC(=S)NNC2=C(C=C(C=C2[N+](=O)[O-])C(F)(F)F)[N+](=O)[O-])F [Kobe2602] + C[C@@H](Oc1cc(-c2cnn(C3CCNCC3)c2)cnc1N)c1c(Cl)ccc(F)c1Cl [Crizotinib] (partner 1 µM)
Method in brief: (§1)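 Relative viability equals treated-well nuclei counts divided by vehicle-well nuclei counts. Counts came from 4× images of lung cancer cell lines grown in 1536-well plates for 5 days after pin-tool dosing on the day after seeding. Dosing used one drug alone or a fixed anchor-drug dose plus five library-drug doses (not always all listed) in √10 steps, and values are medians of duplicate plates.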

Zosuquidar + Tozasertib = compound: O[C@@H](COc1cccc2ncccc12)CN1CCN([C@@H]2c3ccccc3[C@@H]3[C@H](c4ccccc42)C3(F)F)CC1 [Zosuquidar] + Cc1cc(Nc2cc(N3CCN(C)CC3)nc(Sc3ccc(NC(=O)C4CC4)cc3)n2)n[nH]1 [Tozasertib] (partner 0.1 µM)
Method in brief: as §1

Cabozantinib + Lapatinib = compound: COc1cc2nccc(Oc3ccc(NC(=O)C4(C(=O)Nc5ccc(F)cc5)CC4)cc3)c2cc1OC [Cabozantinib] + CS(=O)(=O)CCNCc1ccc(-c2ccc3ncnc(Nc4ccc(OCc5cccc(F)c5)c(Cl)c4)c3c2)o1 [Lapatinib] (partner 2 µM)
Method in brief: as §1

Zosuquidar + Linsitinib = compound: O[C@@H](COc1cccc2ncccc12)CN1CCN([C@@H]2c3ccccc3[C@@H]3[C@H](c4ccccc42)C3(F)F)CC1 [Zosuquidar] + C[C@]1(O)C[C@@H](c2nc(-c3ccc4ccc(-c5ccccc5)nc4c3)c3c(N)nccn32)C1 [Linsitinib] (partner 1 µM)
Method in brief: as §1

Cell Line | relative viability (Kobe2602 + Crizotinib; first compound 0.2 µM) | relative viability (Kobe2602 + Crizotinib; first compound 0.6325 µM) | relative viability (Kobe2602 + Crizotinib; first compound 2 µM) | relative viability (Kobe2602 + Crizotinib; first compound 6.325 µM) | relative viability (Kobe2602 + Crizotinib; first compound 20 µM) | relative viability (Zosuquidar + Tozasertib; first compound 0.01 µM) | relative viability (Zosuquidar + Tozasertib; first compound 0.03162 µM) | relative viability (Zosuquidar + Tozasertib; first compound 0.3162 µM) | relative viability (Zosuquidar + Tozasertib; first compound 1 µM) | relative viability (Cabozantinib + Lapatinib; first compound 0.02 µM) | relative viability (Cabozantinib + Lapatinib; first compound 0.06325 µM) | relative viability (Cabozantinib + Lapatinib; first compound 0.2 µM) | relative viability (Cabozantinib + Lapatinib; first compound 0.6325 µM) | relative viability (Cabozantinib + Lapatinib; first compound 2 µM) | relative viability (Zosuquidar + Linsitinib; first compound 0.01 µM) | relative viability (Zosuquidar + Linsitinib; first compound 0.03162 µM) | relative viability (Zosuquidar + Linsitinib; first compound 0.1 µM) | relative viability (Zosuquidar + Linsitinib; first compound 0.3162 µM) | relative viability (Zosuquidar + Linsitinib; first compound 1 µM) | relative viability (Zosuquidar + Tozasertib; first compound 0.1 µM)
NCI-H2126 | 1.01 | 1.06 | 0.962 | 1.01 | 0.912 | 0.815 | 0.861 | 0.918 | 0.796 | 0.612 | 0.843 | 0.723 | 0.75 | 0.77 | 0.71 | 0.707 | 0.543 | 0.755 | 0.719 | –
NCI-H2228 | 0.484 | 0.504 | 0.441 | 0.494 | 0.585 | 0.213 | 0.272 | 0.208 | 0.272 | 1.08 | 1.41 | 1.11 | 1 | 1.06 | 0.659 | 0.922 | 0.552 | 0.515 | 0.685 | 0.252
NCI-H2347 | 0.613 | 0.643 | 0.612 | 0.712 | 0.785 | 0.593 | 0.575 | 0.691 | 0.543 | 0.883 | 0.951 | 1.03 | 0.824 | 0.925 | 0.968 | 1 | 0.834 | 1.01 | 1.06 | 0.555
NCI-H2405 | 0.853 | 0.916 | 0.827 | 0.91 | 0.786 | 0.774 | 0.762 | 0.747 | 0.74 | – | 1.16 | 1.2 | 1.1 | 1.02 | 0.984 | 0.878 | 0.784 | 0.969 | 0.983 | 0.724
NCI-H3122 | 0.262 | 0.255 | 0.254 | 0.263 | 0.266 | 0.396 | 0.391 | 0.466 | 0.379 | 1.01 | 1.01 | 1.02 | 1.03 | 0.954 | 1.01 | 0.939 | 0.938 | 1.07 | 0.959 | –
PC-3 [JPC-3] | 0.933 | 1.02 | 0.946 | 0.925 | 0.974 | 0.844 | 0.835 | 0.824 | 0.897 | 0.398 | 0.473 | – | 0.407 | 0.391 | 0.945 | 0.956 | 0.817 | 0.929 | 0.981 | 0.879
PC-14 | 0.886 | 0.927 | 0.838 | 1.02 | 0.912 | 0.551 | 0.602 | 0.519 | 0.57 | 0.27 | 0.3 | – | 0.273 | 0.27 | 0.918 | 0.97 | 0.904 | 0.94 | 1.02 | 0.629
RERF-LC-KJ | 0.781 | 0.839 | 0.836 | 0.81 | 0.756 | 0.501 | 0.552 | 0.519 | 0.428 | 0.904 | 0.894 | 0.784 | 0.776 | 0.815 | 0.858 | 0.903 | 0.876 | 0.932 | 0.906 | 0.505
SK-LU-1 | 0.94 | 0.944 | 0.965 | 1.06 | 0.924 | 0.292 | 0.359 | 0.353 | 0.332 | – | 0.539 | 0.929 | 0.774 | 0.634 | 1.1 | 1.3 | 1.39 | 1.22 | 0.874 | 0.417
SK-MES-1 | 0.966 | 0.964 | 0.954 | 1.04 | 1 | 0.797 | 1.01 | 0.942 | 0.857 | 0.468 | 0.497 | 0.42 | 0.448 | 0.396 | 1.01 | 1.08 | 0.991 | 0.979 | 1.1 | 0.97
SW 1573 | 0.788 | 0.879 | 0.736 | 0.863 | 0.912 | 0.171 | 0.147 | 0.182 | 0.157 | 1.06 | 1.03 | 1.23 | 1.23 | 1.04 | 0.713 | 0.728 | 0.793 | 0.925 | 0.859 | 0.14
